These cell lines were tested with COc1cccc2cc(-c3nc([C@H]4CC[C@H](C(=O)O)CC4)n4ncnc(N)c34)[nH]c12 [OSI-027] + COc1cc2c(Oc3ccc(NC(=O)C4(C(=O)Nc5ccc(F)cc5)CC4)cc3F)ccnc2cc1OCCCN1CCOCC1 [Foretinib] (partner 0.25 µM) (assay: relative viability (nuclei count vs DMSO), 5 days (fraction); higher = more cells survive). Conditions: first compound 0.01 µM.
In short: (§1)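 Values are medians from duplicate plates. Each reflects relative viability, defined as the nuclei count of treated wells over that of vehicle wells. Lung cancer cell lines in 1536-well plates were pin-tool dosed one day after seeding with one drug alone or with a fixed anchor-drug dose plus five library-drug doses (not always all listed) in √10 steps, then fixed, stained and imaged at 4× after 5 days.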

In order of falling relative viability:
1. NCI-H1650  1.42
2. NCI-H2126  1.3
3. NCI-H1437  1.27
4. NCI-H2009  1.25
5. COR-L 105  1.22
6. IA-LM  1.21
7. HOP-62  1.19
8. NCI-H2342  1.14
9. NCI-H1299  1.14
10. A549  1.14
11. ABC-1  1.13
12. NCI-H441  1.09
13. NCI-H650  1.08
14. PC-3 [JPC-3]  1.02
15. COR-L23  1.01
16. NCI-H1975  1
17. Calu-6  0.989
18. NCI-H661  0.984
19. ChaGo-K-1  0.977
20. NCI-H2023  0.964
21. PC-14  0.937
22. NCI-H1563  0.937
23. LOU-NH91  0.924
24. SK-LU-1  0.911
25. NCI-H520  0.894
26. NCI-H2228  0.887
27. NCI-H1623  0.876
28. SK-MES-1  0.874
29. NCI-H1755  0.859
30. H3255  0.772
31. SW 1573  0.753
32. NCI-H1651  0.732
33. EPLC-272H  0.712
34. LCLC-103H  0.693
35. NCI-H358  0.68
36. NCI-H1793  0.574
37. BEN  0.475
38. EBC-1  0.112

Same assay, conditions: first compound 0.03162 µM

In order of rising relative viability:
1. EBC-1  0.104
2. EPLC-272H  0.498
3. NCI-H1793  0.557
4. NCI-H358  0.562
5. BEN  0.617
6. SW 900  0.644
7. LCLC-103H  0.658
8. NCI-H1651  0.677
9. NCI-H1623  0.767
10. NCI-H2228  0.791
11. NCI-H520  0.796
12. SK-LU-1  0.816
13. PC-14  0.843
14. COR-L23  0.844
15. ChaGo-K-1  0.854
16. NCI-H1563  0.857
17. NCI-H441  0.859
18. NCI-H661  0.893
19. LOU-NH91  0.914
20. NCI-H1755  0.92
21. SW 1573  0.923
22. NCI-H2023  0.925
23. Calu-6  0.936
24. NCI-H2342  0.95
25. NCI-H1975  0.954
26. PC-3 [JPC-3]  0.976
27. NCI-H2126  0.983
28. IA-LM  0.992
29. ABC-1  0.996
30. H3255  1.03
31. A549  1.04
32. HOP-62  1.09
33. NCI-H650  1.09
34. SK-MES-1  1.1
35. NCI-H1299  1.13
36. NCI-H2009  1.14
37. NCI-H1650  1.21
38. COR-L 105  1.24
39. NCI-H1437  1.26

Same assay, conditions: first compound 0.1 µM

In order of rising relative viability:
1. EBC-1  0.1
2. BEN  0.371
3. NCI-H1793  0.539
4. SK-LU-1  0.586
5. NCI-H520  0.59
6. EPLC-272H  0.594
7. NCI-H1623  0.671
8. NCI-H1651  0.69
9. NCI-H358  0.699
10. SW 1573  0.713
11. SW 900  0.725
12. IA-LM  0.729
13. NCI-H1975  0.783
14. NCI-H2023  0.785
15. LCLC-103H  0.786
16. H3255  0.811
17. LOU-NH91  0.818
18. NCI-H2228  0.831
19. NCI-H1755  0.835
20. Calu-6  0.837
21. NCI-H441  0.842
22. COR-L 105  0.888
23. ABC-1  0.904
24. ChaGo-K-1  0.907
25. NCI-H1563  0.909
26. SK-MES-1  0.926
27. PC-3 [JPC-3]  0.963
28. COR-L23  0.993
29. A549  1.01
30. NCI-H650  1.01
31. HOP-62  1.02
32. PC-14  1.03
33. NCI-H661  1.03
34. NCI-H2342  1.05
35. NCI-H1299  1.09
36. NCI-H2009  1.18
37. NCI-H1650  1.19
38. NCI-H2126  1.2
39. NCI-H1437  1.34

Same assay, conditions: first compound 0.3162 µM

In order of falling relative viability:
1. COR-L 105  1.29
2. NCI-H1437  1.28
3. NCI-H1650  1.25
4. NCI-H1299  1.14
5. HOP-62  1.14
6. NCI-H2009  1.11
7. COR-L23  1.06
8. PC-3 [JPC-3]  0.98
9. NCI-H661  0.975
10. PC-14  0.958
11. SW 900  0.873
12. NCI-H650  0.868
13. H3255  0.865
14. NCI-H2126  0.862
15. NCI-H1975  0.841
16. A549  0.84
17. NCI-H1563  0.839
18. NCI-H2342  0.83
19. NCI-H441  0.823
20. NCI-H1755  0.809
21. IA-LM  0.807
22. LOU-NH91  0.8
23. ChaGo-K-1  0.8
24. Calu-6  0.784
25. NCI-H2023  0.765
26. NCI-H2228  0.745
27. NCI-H358  0.703
28. SK-MES-1  0.69
29. LCLC-103H  0.666
30. NCI-H1651  0.653
31. ABC-1  0.652
32. NCI-H1623  0.595
33. SW 1573  0.59
34. SK-LU-1  0.433
35. EPLC-272H  0.41
36. NCI-H1793  0.345
37. NCI-H520  0.333
38. BEN  0.3
39. EBC-1  0.116

Same assay, conditions: first compound 1 µM

In order of rising relative viability:
1. EBC-1  0.124
2. IA-LM  0.136
3. NCI-H1793  0.166
4. EPLC-272H  0.236
5. BEN  0.258
6. SK-LU-1  0.28
7. NCI-H520  0.31
8. LCLC-103H  0.334
9. NCI-H1623  0.391
10. SW 900  0.405
11. NCI-H2228  0.439
12. SK-MES-1  0.447
13. PC-3 [JPC-3]  0.454
14. NCI-H2023  0.461
15. A549  0.465
16. H3255  0.481
17. NCI-H1651  0.491
18. ChaGo-K-1  0.504
19. NCI-H650  0.514
20. NCI-H1755  0.522
21. NCI-H441  0.538
22. HOP-62  0.541
23. ABC-1  0.567
24. NCI-H358  0.576
25. LOU-NH91  0.58
26. Calu-6  0.593
27. NCI-H661  0.599
28. NCI-H1975  0.635
29. NCI-H2342  0.648
30. NCI-H1437  0.691
31. COR-L23  0.772
32. NCI-H2126  0.786
33. SW 1573  0.787
34. NCI-H1650  0.797
35. NCI-H2009  0.801
36. PC-14  0.847
37. NCI-H1563  0.854
38. COR-L 105  0.995
39. NCI-H1299  1.03

What follows are cell lines tested with Cc1nc(NC(=O)N2CCC[C@H]2C(N)=O)sc1-c1ccnc(C(C)(C)C(F)(F)F)c1 [Alpelisib] + CC1(C)CCC(c2ccc(Cl)cc2)=C(CN2CCN(c3ccc(C(=O)NS(=O)(=O)c4ccc(N[C@H](CCN5CCOCC5)CSc5ccccc5)c(S(=O)(=O)C(F)(F)F)c4)cc3)CC2)C1 [Navitoclax] (partner 0.5 µM) in the same assay as above. Conditions: first compound 0.04 µM.
In short: as §1

In order of rising relative viability:
1. BEN  0.0833
2. EBC-1  0.417
3. NCI-H1793  0.419
4. H3255  0.463
5. NCI-H441  0.571
6. COR-L 105  0.607
7. NCI-H1792  0.619
8. LOU-NH91  0.707
9. NCI-H2126  0.768
10. SK-LU-1  0.781
11. PC-3 [JPC-3]  0.828
12. Calu-6  0.834
13. NCI-H2023  0.882
14. IA-LM  0.894
15. SW 1573  0.903
16. COR-L23  0.923
17. HCC-44  0.949
18. NCI-H1651  0.956
19. NCI-H1975  0.963
20. NCI-H2228  0.977
21. PC-14  0.984
22. HOP-62  1
23. ChaGo-K-1  1.01
24. NCI-H520  1.02
25. NCI-H1755  1.05
26. NCI-H1299  1.05
27. NCI-H1437  1.09
28. EPLC-272H  1.16
29. SK-MES-1  1.16
30. A549  1.23
31. NCI-H2009  1.24
32. NCI-H1650  1.29

Same assay, conditions: first compound 0.1265 µM

In order of rising relative viability:
1. BEN  0.0642
2. EBC-1  0.312
3. NCI-H1793  0.335
4. NCI-H441  0.434
5. H3255  0.47
6. NCI-H1792  0.582
7. COR-L 105  0.633
8. LOU-NH91  0.637
9. IA-LM  0.727
10. SK-LU-1  0.788
11. PC-3 [JPC-3]  0.836
12. NCI-H2126  0.865
13. SW 1573  0.879
14. HOP-62  0.893
15. Calu-6  0.905
16. NCI-H520  0.905
17. NCI-H1755  0.979
18. HCC-44  0.983
19. NCI-H2228  1
20. NCI-H2023  1.01
21. COR-L23  1.02
22. EPLC-272H  1.05
23. NCI-H1299  1.05
24. NCI-H1975  1.06
25. PC-14  1.08
26. NCI-H1651  1.11
27. NCI-H1437  1.13
28. NCI-H2009  1.14
29. A549  1.18
30. SK-MES-1  1.25
31. NCI-H1650  1.29

Same assay, conditions: first compound 0.4 µM

In order of rising relative viability:
1. BEN  0.161
2. EBC-1  0.339
3. NCI-H1793  0.356
4. H3255  0.524
5. LOU-NH91  0.526
6. NCI-H2228  0.552
7. NCI-H1792  0.702
8. COR-L 105  0.728
9. IA-LM  0.736
10. NCI-H441  0.8
11. NCI-H2126  0.816
12. SK-LU-1  0.845
13. PC-3 [JPC-3]  0.848
14. Calu-6  0.882
15. NCI-H2023  0.887
16. NCI-H1975  1.03
17. NCI-H1437  1.03
18. SW 1573  1.03
19. NCI-H1755  1.04
20. HCC-44  1.04
21. NCI-H1651  1.04
22. A549  1.06
23. NCI-H1299  1.07
24. COR-L23  1.07
25. NCI-H520  1.07
26. HOP-62  1.12
27. ChaGo-K-1  1.14
28. PC-14  1.16
29. NCI-H2009  1.16
30. EPLC-272H  1.19
31. SK-MES-1  1.29
32. NCI-H1650  1.42

Same assay, conditions: first compound 1.265 µM

In order of rising relative viability:
1. BEN  0.0705
2. NCI-H1793  0.376
3. H3255  0.384
4. LOU-NH91  0.504
5. HOP-62  0.606
6. NCI-H2126  0.618
7. EPLC-272H  0.722
8. NCI-H1650  0.762
9. NCI-H2023  0.782
10. NCI-H1975  0.788
11. HCC-44  0.802
12. PC-14  0.913
13. NCI-H1755  0.93
14. NCI-H1299  1.01
15. NCI-H1437  1.01

Source: the supplement of paper PMC10307832
